Source: the Deep4Chem optical property database
One block for each molecule: values may come before it.

Assay: photoluminescence quantum yield (fraction); solvent given as SMILES

- photoluminescence quantum yield (in ClCCl): 0.04
SMILES: CC1=[N+]2C(=Cc3c4c(cn3[B-]2(F)F)-c2nc-4c(-c3ccccc3)c3ccc([nH]3)c(-c3ccccc3)c3nc(c(-c4ccccc4)c4ccc([nH]4)c2-c2ccccc2)C=C3)C(C)C1 (centres undefined)

- photoluminescence quantum yield (in CC#N): 0.25
- photoluminescence quantum yield (in CCCCCC): 0.37
SMILES: C(=C\c1cccnc1)/c1ccc(Nc2ccccc2)cc1

- photoluminescence quantum yield (in CS(C)=O): 0.84
SMILES: c1cnc2c(c1)c1nc(-c3ccc(-c4nc5c6cccnc6c6ncccc6c5[nH]4)cc3)[nH]c1c1cccnc12

SMILES: CC1(C)c2ccccc2N(c2ccc3c(c2)C(C)(C)c2cc(N4c5ccccc5C(C)(C)c5ccccc54)ccc2S3(=O)=O)c2ccccc21
- photoluminescence quantum yield (in O=P(c1ccccc1)(c1ccccc1)c1ccccc1Oc1ccccc1P(=O)(c1ccccc1)c1ccccc1): 0.8

- photoluminescence quantum yield (in CC#N): 0.31
- photoluminescence quantum yield (in CCCCCC): 0.64
SMILES: CN(c1ccccc1)c1ccc(/C=C/c2ccccc2)cc1

- photoluminescence quantum yield (in CC#N): 0.042
SMILES: Cc1ccc(-c2ccc(/C=C/c3cccs3)cn2)nc1

- photoluminescence quantum yield (in C1CCCCC1): 0.0006
- photoluminescence quantum yield (in C1COCCO1): 0.001
- photoluminescence quantum yield (in CC#N): 0.002
- photoluminescence quantum yield (in CCO): 0.004
- photoluminescence quantum yield (in OCC(F)(F)F): 0.004
SMILES: Cc1cc(=O)oc2c1cc(Br)c1occ(C)c12

- photoluminescence quantum yield (in CN(C)C=O): 0.088
SMILES: Cc1nc2cccc(-c3nc4ccccc4[nH]3)c2c(=O)[nH]1

- photoluminescence quantum yield (in ClCCl): 0.01
SMILES: O=S1(=O)C2=C(c3ccccc31)C1(c3ccccc32)c2ccccc2-c2sc3ccccc3c21 (centres undefined)

SMILES: COc1cc2c(cc1/C=C(\C#N)c1nc3ccccc3s1)c1ccccc1n2C
- photoluminescence quantum yield (in C1CCOC1): 0.002
- photoluminescence quantum yield (in CC#N): 0.001
- photoluminescence quantum yield (in CCOC(C)=O): 0.003
- photoluminescence quantum yield (in CN(C)C=O): 0.003
- photoluminescence quantum yield (in CO): 0.001
- photoluminescence quantum yield (in CS(C)=O): 0.004
- photoluminescence quantum yield (in Cc1ccccc1): 0.003
- photoluminescence quantum yield (in ClC(Cl)Cl): 0.003
- photoluminescence quantum yield (in ClCCl): 0.003

- photoluminescence quantum yield (in C1CCOC1): 0.686
SMILES: CC(C)(C)c1ccc(-c2c(-c3ccc(N(c4ccccc4)c4ccccc4)cc3)c(C#N)c(-c3ccc(N(c4ccccc4)c4ccccc4)cc3)c(-c3ccc(C(C)(C)C)cc3)c2-c2ccc(C(C)(C)C)cc2)cc1

- photoluminescence quantum yield (in CC#N): 0.57
- photoluminescence quantum yield (in CCOC(C)=O): 0.69
- photoluminescence quantum yield (in CN(C)C=O): 0.53
- photoluminescence quantum yield (in CS(C)=O): 0.51
- photoluminescence quantum yield (in c1ccccc1): 0.77
SMILES: CCOC(=O)CN(CC(=O)OCC)c1ccc(-c2cc(-c3cccnc3)nc(-c3cccnc3)c2)cc1

- photoluminescence quantum yield (in ClCCl): 0.02
SMILES: COc1ccc(/C=C/c2cc(/C=C/c3ccc(N(c4ccccc4)c4ccccc4)cc3)nc(/C=C/c3ccc(N(C)C)cc3)n2)cc1

- photoluminescence quantum yield (in ClCCl): 0.34
SMILES: C[Si]1(C)O[Si](C)(C)c2cc3c(-c4ccccc4)c4cc(Cl)ccc4nc3cc21

- photoluminescence quantum yield (in CC#N): 0.049
SMILES: O=CC12N=N[C@](C=O)(C3C4CCC(C4)C31)C1[C@@H]3CC[C@@H](C3)[C@H]12 (some centres undefined)

- photoluminescence quantum yield (in O): 0.65
SMILES: Cc1cc(-c2ccc(-c3n(C)c4ccccc4[n+]3C)cc2)ccc1-c1ccc(-c2n(C)c3ccccc3[n+]2C)cc1

- photoluminescence quantum yield (in CCOC(C)=O): 0.35
SMILES: CCn1c(-c2ccc(-c3cccc4ccccc34)cc2)c(-c2ccc3ccccc3c2)c(-c2ccc3ccccc3c2)c1-c1ccc(-c2cccc3ccccc23)cc1

SMILES: COc1ccc(-c2cc3c(o2)=CC2=C(C(F)(F)F)c4cc5oc(-c6ccc(OC)cc6)cc5n4[B-](F)(F)[N+]=32)cc1
- photoluminescence quantum yield (in C1CCOC1): 0.49
- photoluminescence quantum yield (in CC#N): 0.45
- photoluminescence quantum yield (in CCO): 0.37
- photoluminescence quantum yield (in CO): 0.32
- photoluminescence quantum yield (in Cc1ccccc1): 0.58
- photoluminescence quantum yield (in ClC(Cl)Cl): 0.56

- photoluminescence quantum yield (in C1COCCO1): 0.26
- photoluminescence quantum yield (in CC#N): 0.04
- photoluminescence quantum yield (in ClCCl): 0.2
SMILES: CCCCN(CCCC)c1ccc(/C=C/c2ccc3nc(/C=C/c4ccc(N(C)C)cc4)c(=O)n(CCC)c3c2)cc1

SMILES: CC(C)(C)c1ccc2c(c1)c1cc(C(C)(C)C)ccc1n2-c1ccc(S(=O)(=O)c2ccc(-n3c4ccc(C(C)(C)C)cc4c4cc(C(C)(C)C)ccc43)cc2)cc1
- photoluminescence quantum yield (in Cc1ccccc1): 0.69

- photoluminescence quantum yield (in ClCCl): 0.022
SMILES: CCCCN1C(=O)c2ccc3c4ccc5c6c(cc(-c7ccc(C(=C(c8ccccc8)c8ccccc8)c8ccccc8)cc7)c(c7ccc(c2c37)C1=O)c64)C(=O)N(CCCC)C5=O

- photoluminescence quantum yield (in ClCCl): 0.451
SMILES: CC(C)(C)c1ccc(-n2c(-c3ccc(N(c4ccc(-c5ccc(N(c6ccc(-c7nc8c9ccccc9c9ccccc9c8n7-c7ccc(C(C)(C)C)cc7)cc6)c6ccc(-c7nc8c9ccccc9c9ccccc9c8n7-c7ccc(C(C)(C)C)cc7)cc6)cc5)cc4)c4ccc(-c5nc6c7ccccc7c7ccccc7c6n5-c5ccc(C(C)(C)C)cc5)cc4)cc3)nc3c4ccccc4c4ccccc4c32)cc1

- photoluminescence quantum yield (in CCO): 0.42
SMILES: CC1(C)Nc2cc3nc4cc(Cl)c(Cl)cc4nc3cc2N1

- photoluminescence quantum yield (in CC#N): 0.017
SMILES: Cc1sc(Cl)cc1-c1nc(-c2ccccc2)[nH]c1-c1cc(Cl)sc1C

- photoluminescence quantum yield (in CS(C)=O): 0.1
SMILES: C[N+]1=C(/C=C/C=C2/N(CCC[N+](C)(C)C)c3ccc(S(=O)(=O)[O-])cc3C2(C)C)C(C)(C)c2ccccc21

- photoluminescence quantum yield (in C1CCOC1): 4e-05
SMILES: C1=Cc2ccccc2C(=Cc2ccc(C=C3c4ccccc4-c4ccccc43)cc2)c2ccccc21

SMILES: CC1=[N+]2C(=C(c3c4ccccc4c(-c4ccccc4)c4ccccc34)c3ccc(C)n3[B-]2(F)F)C=C1
- photoluminescence quantum yield (in CC#N): 0.004
- photoluminescence quantum yield (in CCCCCC): 0.773
- photoluminescence quantum yield (in CCO): 0.006
- photoluminescence quantum yield (in CN(C)C=O): 0.004
- photoluminescence quantum yield (in Cc1ccccc1): 0.141
- photoluminescence quantum yield (in ClCCl): 0.007

- photoluminescence quantum yield (in CC#N): 0.14
SMILES: c1ccc2c(c1)ncc1ccc3cnc4ccccc4c3c12

- photoluminescence quantum yield (in C1CCCCC1): 0.85
- photoluminescence quantum yield (in CC#N): 0.02
- photoluminescence quantum yield (in CO): 0.003
- photoluminescence quantum yield (in ClC(Cl)Cl): 0.73
SMILES: CN(C)c1ccc(-c2nc(C#N)c(C#N)n2C)cc1

- photoluminescence quantum yield (in C1CCCCC1): 0.4
SMILES: Cc1cccc2ccccc12

- photoluminescence quantum yield (in ClCCl): 0.76
SMILES: c1ccc2cc(-c3c4ccccc4c(-c4ccc(-n5c6ccccc6c6ccccc65)cc4)c4ccccc34)ccc2c1

- photoluminescence quantum yield (in C1CCCCC1): 0.91
SMILES: CC(C)(C)C#Cc1ccc2c3cccc4cccc(c5cccc1c52)c43

- photoluminescence quantum yield (in CO): 0.0015
- photoluminescence quantum yield (in O): 0.0007
- photoluminescence quantum yield (in OCCO): 0.0041
- photoluminescence quantum yield (in [2H]O[2H]): 0.001
SMILES: O=C(O)C1=C/C(=C/C=[N+]2/c3cc(O)c(C[C@@H]4O[C@H](CO)[C@@H](O)C(O)[C@H]4O)cc3C[C@H]2C(=O)O)C[C@H](C(=O)O)N1 (some centres undefined)

SMILES: COc1ccc2c3cccc4c(OC)ccc(c5cccc1c52)c43
- photoluminescence quantum yield (in C1CCOC1): 0.88
- photoluminescence quantum yield (in Cc1ccccc1): 0.76
- photoluminescence quantum yield (in ClC(Cl)(Cl)Cl): 0.05
- photoluminescence quantum yield (in ClC(Cl)Cl): 0.82
- photoluminescence quantum yield (in ClCCl): 0.94
- photoluminescence quantum yield (in c1ccncc1): 0.9

- photoluminescence quantum yield (in C1CCOC1): 0.029
- photoluminescence quantum yield (in ClC(Cl)Cl): 0.04
SMILES: CCCCCCCCC1(CCCCCCCC)c2cc3c(cc2-c2sc(-c4ccc(/C=C5\SC(=S)N(CC)C5=O)c5nsnc45)cc21)C(CCCCCCCC)(CCCCCCCC)c1cc(-c2ccc(/C=C4\SC(=S)N(CC)C4=O)c4nsnc24)sc1-3

- photoluminescence quantum yield (in ClCCl): 0.075
SMILES: Cc1cc2c3ccccc3[nH]c2c2[nH]c3ccccc3c12

SMILES: CC1=[N+]2C(=C(c3ccc(N4CCOCC4)cc3)c3ccc(C)n3[B-]2(F)F)C=C1
- photoluminescence quantum yield (in C1CCCCC1): 0.35
- photoluminescence quantum yield (in CC(=O)C(C)(C)C): 0.002
- photoluminescence quantum yield (in CC(C)=O): 0.002
- photoluminescence quantum yield (in CCCCCC): 0.388
- photoluminescence quantum yield (in CCOC(C)=O): 0.008
- photoluminescence quantum yield (in CO): 0.005
- photoluminescence quantum yield (in Cc1ccccc1): 0.32
- photoluminescence quantum yield (in ClC(Cl)Cl): 0.11

- photoluminescence quantum yield (in ClCCl): 0.94
SMILES: CCCCC(CC)COc1ccc2nc(-c3ccc(-c4ccc(N(C)C)cc4)s3)sc2c1 (centres undefined)

- photoluminescence quantum yield (in CC#N): 0.73
SMILES: Cc1ccc(C#Cc2cc3ccccc3oc2=O)cc1

- photoluminescence quantum yield (in ClCCl): 0.17
SMILES: COC(=O)c1cc(=O)n(C)c2cc(-c3ccccc3N(C)C)sc12
